Laboratory results taken from patent US5079260A, “Method for treating inflammation and compounds and compositions suitable for use therein” (Nova Pharmaceutical Corporation, priority 1990, dated 1992).
Structures can show the parent of a compound that is named as a salt.

Experiments:
[1] = tested on: Ear Edema Caused By Tetradecanoylphorbol Acetate; assay: Inhibition of Ear Edema Caused by Tetradecanoylphorbol Acetate (II), Table 7; assay type: in vivo, CF-1 Mice; conditions: 3 h; for % Inhibition Intraperitoneal: i.p.
Description: Inhibition of Ear Edema Caused by Tetradecanoylphorbol Acetate (II)
CF-1 Mice, 25-30 g body weight, six animals per group were used. Test compounds were administered intraperitoneally or topically as follows. For intraperitoneal administration, the test compound was dissolved in dimethyl sulfoxide or 0.5% methylcellulose and 100 microliters was injected 30 minutes prior to irritant (100 mg/kg, i.p.). […] A solution of the irritant, tetradecanoylphorbol acetate, 200 μg/mL, was added to the surface of the ear, 5 μL to the upper surface and 5 μL to the lower surface. After three hours, the thickness of the ear was measured to 0.01 mm by a micrometer with loose drag, positioned at the lateral-most edge of the mid-point of the pinna. Data were calculated as the inhibition of increased ear thickness compared to control animals receiving only the irritant.

[2] = tested on: Reverse Passive Artus Reaction; assay: Reverse Passive Artus Reaction (II), Table 11; assay type: in vivo, Male CD rats; conditions: inhibition of blueing, i.p.
Description: Reverse Passive Artus Reaction (II) Male CD rats weighing between 200 and 250 g were used. […] The animals were anesthetized inhalationally with isoflurane and then injected through the penile vein with 1 mL of a solution of 2.5 mg of Evan's blue dye and 5.0 mg of human serum albumin in 1 mL of saline. This treatment was followed immediately by intracutaneous injections of 0.03 mL of anti-human albumin diluted to contain 3.65 mg of antibody at 3 sites along the midline back. Anesthesia was terminated and after three hours, the animals were sacrificed. The skin was removed and the blue stained areas cut out. The skin patches were soaked overnight in stoppered tubes containing 1 mL of 1 N potassium hydroxide at 37° C. Then 9 mL of a mixture of five parts of a 0.6 N phosphoric acid and thirteen parts of acetone were added to the tubes. The tube contents were agitated and centrifuged, and the absorbance measured at 620 nm. The data were calculated as inhibition of blueing by test compound compared to control animals receiving only antigen and antibody.

[3] = tested on: Ear Edema Caused by Arachidonic Acid; assay: Inhibition of Ear Edema Caused by Arachidonic Acid (II), Table 8; assay type: in vivo, CF-1 mice; conditions: i.p., sixty minutes
Description: Inhibition of Ear Edema Caused by Arachidonic Acid (II)
CF-1 mice, 25-30 g body weight, six animals per group, were used. The requisite amount of the test compound was dissolved is dimethyl sulfoxide or 0.5% methylcellulose and 100 μL of the solution was injected intraperitoneally 30 minutes prior to the administration of 100 mg/kg of arachidponic acid. A solution of this irritant, b 100 mg/mL in ethanol, was applied to the surface of the ear, 5 μL to the upper surface and 5 μL to the lower surface. After sixty minutes, the thickness of the ear was measured to 0.01 mm by a micrometer with the loose drag positioned at the lateral-most edge of the mid-point of the pinna. Data were calculated as the percent inhibityion by the test compound of increased ear thickness compared to control animals recieveing only the irritant.

[4] = tested on: Ear Edema Caused by Xylene; assay: Inhibition of Ear Edema Caused by Xylene (II), Table 9; assay type: in vivo, CF-1 mice; conditions: i.p., 2 h
Description: Inhibition of Ear Edema Caused by Xylene (II)
CF-1 mice, 25-30 g body weight, six animals per group, were used. The requisite amount of the test compound was dissolved is dimethyl sulfoxide or 0.5% methylcellulose and 100 μL of the solution was injected intraperitoneally 30 minutes prior to the administration the irritant. The irritant xylene was applied to the surface of the ear, 20 μL to the upper surface and 20 μL to the lower surface, After two hours, the thickness of the ear was measured to 0.01 mm by a micrometer with the loose drag positioned at the lateral-most edge of the mid-point of the pinna. Data were calculated as the percent inhibition by the test compound of increased ear thickness compared to control animals receiving only the irritant.

[5] = tested on: Ear Edema Caused by Oxazolone; assay: Inhibition of Ear Edema Caused by Oxazolone (II), Table 10; assay type: in vivo, CF-1 mice; conditions: i.p., 24 h
Description: Inhibition of Ear Edema Caused by Oxazolone (II)
CF-1 mice, 25-30 g body weight, five to six animals per group were used. The mice were sensitized to the irritant two weeks prior to the test by dribbling 100 μL of a 3% solution of oxazolone in acetone onto the abdominal skin of the animal. Test compounds were administered intraperitoneally as follows. […] The irritant, 3% oxazolone in acetone, was added to the surface of the ear, 5 μL added to the upper surface and 5 μL added to the lower surface. After twenty four hours, the thickness of the ear was measured to 0.01 mm by a micrometer with loose drag, positioned at the lateral-most edge of the mid-point of the pinna. Data were calculated as the inhibition of increased ear thickness compared to control animals' receiving only the irritant.

SMILES	% Inhibition Intraperitoneal ([1]; 10 mg/kg)	% Inhibition Intraperitoneal ([1]; 30 mg/kg)	% Inhibition Intraperitoneal ([1]; 100 mg/kg)	% Inhibition Intraperitoneal ([2]; 100 mg/kg)	% Inhibition Intraperitoneal ([3]; 10 mg/kg)	% Inhibition Intraperitoneal ([3]; 30 mg/kg)	% Inhibition Intraperitoneal ([3]; 100 mg/kg)	% Inhibition ([4]; 10 mg/kg)	% Inhibition ([4]; 30 mg/kg)	% Inhibition ([4]; 100 mg/kg)	% Inhibition Intraperitoneal ([5]; 10 mg/kg)	% Inhibition Intraperitoneal ([5]; 30 mg/kg)	% Inhibition Intraperitoneal ([5]; 100 mg/kg)	further results
Cc1ccc2c(c1)C(CCC(=O)N[C@@H](CC(C)C)C(=O)O)c1ccccc1-2 (stereo partly drawn) [NPC 15671, N-{9H-[3-(2-Methylfluoren-9-yl)propionyl]}-L-leucine]	41%	31%	66%	13%	40%	19%	56%	6%	10%	18%	5%	20%	69%	
CC(C)(C)C[C@H](NC(=O)OCC1c2ccccc2-c2ccccc21)C(=O)O [NPC 15676, N-[(9H-Fluoren-9-ylmethoxy)carbonyl]-L--neopentylglycine quarter hydrate]	0%	20%	16%	82%	20%	44%	79%	26%	12%	44%	0%	4%	50%	
Cc1ccc2c(c1)C(COC(=O)N[C@@H](CC(C)C)C(=O)O)c1cc(C)ccc1-2 [NPC 15669, N-{[9H-(2,7-Dimethylfluoren-9-yl)methoxy]-carbonyl}-L-leucine]	43%	27%	133%	60%	12%	22%	60%	12%	22%	60%	-40%	84%	84%	
CC(C)(C)[C@H](NC(=O)OCC1c2ccccc2-c2ccccc21)C(=O)O [NPC 15573, N-[(9H-Fluoren-9-ylmethoxy)carbonyl]-L-tert-leucine]	39%	52%	75%	50%	27%	32%	42%	23%	17%			28%	48%	% Inhibition, topical ([1]; dose 10 (mg/kg)): 20%; % Inhibition, topical ([1]; dose 30 (mg/kg)): 31%; % Inhibition, topical ([1]; dose 100 (mg/kg)): 38%
CC(C)C[C@H](NC(=O)OCC1c2ccccc2-c2ccccc21)C(=O)OCC(O)CO (some centres unmarked) [NPC 15430]				48%										
CC(C)C[C@H](NC(=O)CCC1c2ccccc2-c2ccccc21)C(=O)O [NPC 15672, N-{9H-[3-Fluorenyl-9)propionyl]}-L-leucine, sodium salt]	54%	21%												% Inhibition Intraperitoneal ([1]; 100 mg/kg, sodium salt): 66%; % Inhibition Intraperitoneal ([2]; 100 mg/kg, sodium salt): 34%; % Inhibition Intraperitoneal ([5]; 10 mg/kg, sodium salt): 11%; % Inhibition Intraperitoneal ([5]; 30 mg/kg, sodium salt): 19%; % Inhibition Intraperitoneal ([5]; 100 mg/kg, sodium salt): 35%
Cc1cccc2c1-c1c(C)cccc1C2COC(=O)N[C@@H](CC(C)C)C(=O)O [NPC 15670]	27%	117%	150%	82%				78%	46%	50%	-36%	43%		
CC(C)C[C@H](NC(=O)OCCC1c2ccccc2-c2ccccc21)C(=O)O [NPC 15521, N-[(9H-Fluoren-9-ylethoxy)carbonyl]-L-leucine]	33%	37%	77%	63%	34%	41%	69%	20%	15%	57%	39%	45%	74%	
COc1ccc2c(c1)C(COC(=O)N[C@@H](CC(C)C)C(=O)O)c1ccccc1-2 (stereo partly drawn) [NPC 15489, N-[(2-Methoxyfluoren-9-ylmethoxy)carbonyl]-L-leucine]				64%										
Cc1ccc2c(c1)C(COC(=O)N[C@@H](CC(C)C)C(=O)O)c1ccccc1-2 (stereo partly drawn) [NPC 15477, N-{[9H-(2-Methylfluoren-9-yl)methoxy]carbonyl}-L-leucine]	35%	37%	72%	53%	10%	58%	82%	41%	53%	69%	3%	14%	43%	
CC(C)CC(CO)NC(=O)OCC1c2ccccc2-c2ccccc21 (centres unmarked) [NPC 15427, 2-{N-[(9H-Fluoren-9-ylmethoxy)carbonyl]amino}-4-methylpentanol]				14%										
CC(C)C[C@H](NC(=O)CCC1c2ccccc2-c2ccccc21)C(=O)O [NPC 15476, N-[3-(9H-Fluoren-9-yl)propionyl]-L-leucine]			64%	56%							0%	5%	43%	
COC(=O)[C@H](CC(C)C)NC(=O)OCC1c2ccccc2-c2ccccc21 [NPC 15326, N-[(9H-Fluoren-9-ylmethoxy)carbonyl]-L-leucine methyl ester]				19%										
COc1ccc2c(c1)c(CC(=O)O)c(C)n2C(=O)c1ccc(Cl)cc1 [Indomethacin, reference compound]							1%							% Inhibition Intraperitoneal ([2]; 1 mg/kg): 5%; % Inhibition Intraperitoneal ([2]; 3 mg/kg): 26%; % Inhibition Intraperitoneal ([2]; 10 mg/kg): 27%; % Inhibition Intraperitoneal ([5]; 1 mg/kg): 4%; % Inhibition Intraperitoneal ([5]; 3 mg/kg): 35%
